Laboratory results published in PubChem BioAssay (NCI).
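A five-concentration, 48-hour dose response in 96-well plates underlies each endpoint, interpolated linearly between surrounding concentrations. GI50 marks 50% less growth. TGI is the concentration that stops growth completely.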

How the values were obtained:
Assay in all cases: NCI tumour cell line growth inhibition, 48 h
[1] = tested on: 786-0 renal
[2] = tested on: A498 renal
[3] = tested on: A549 NSCLC
[4] = tested on: ACHN renal
[5] = tested on: BT-549 breast
[6] = tested on: CAKI-1 renal
[7] = tested on: CCRF-CEM leukemia
[8] = tested on: COLO 205 colon
[9] = tested on: DU-145 prostate
[10] = tested on: EKVX NSCLC
[11] = tested on: HCC-2998 colon
[12] = tested on: HCT-116 colon
[13] = tested on: HCT-15 colon
[14] = tested on: HL-60(TB) leukemia
[15] = tested on: HOP-62 NSCLC
[16] = tested on: HOP-92 NSCLC
[17] = tested on: HS 578T breast
[18] = tested on: HT29 colon
[19] = tested on: K-562 leukemia
[20] = tested on: KM12 colon
[21] = tested on: LOX IMVI melanoma
[22] = tested on: M14 melanoma
[23] = tested on: MALME-3M melanoma
[24] = tested on: MCF7 breast
[25] = tested on: MDA-MB-231 breast
[26] = tested on: MDA-MB-435
[27] = tested on: MOLT-4 leukemia
[28] = tested on: NCI-H226 lung
[29] = tested on: NCI-H23 lung
[30] = tested on: NCI-H460 lung
[31] = tested on: NCI-H522 lung
[32] = tested on: NCI/ADR-RES ovarian
[33] = tested on: OVCAR-3 ovarian
[34] = tested on: OVCAR-4 ovarian
[35] = tested on: OVCAR-5 ovarian
[36] = tested on: OVCAR-8 ovarian
[37] = tested on: PC-3 prostate
[38] = tested on: RPMI-8226 leukemia
[39] = tested on: RXF 393 renal
[40] = tested on: SF-268 CNS
[41] = tested on: SF-295 CNS
[42] = tested on: SF-539 CNS
[43] = tested on: SK-MEL-28 melanoma
[44] = tested on: SK-MEL-5 melanoma
[45] = tested on: SK-OV-3 ovarian
[46] = tested on: SN12C renal
[47] = tested on: SNB-19 CNS
[48] = tested on: SNB-75 CNS
[49] = tested on: SR leukemia
[50] = tested on: SW-620 colon
[51] = tested on: T-47D breast
[52] = tested on: TK-10 renal
[53] = tested on: U251 CNS
[54] = tested on: UACC-257 melanoma
[55] = tested on: UACC-62 melanoma
[56] = tested on: UO-31 renal

## CCN(CC)CCOc1ccc2c(-c3ccccc3)c(-c3ccc(OC)cc3)c(=O)oc2c1
[1]
  GI50: 2.22 µM
  TGI: 5.37 µM
[2]
  GI50: 3.13 µM
  TGI: 16.4 µM
[3]
  GI50: 7.76 µM
  TGI: 22 µM
[4]
  GI50: 6.82 µM
  TGI: 20.1 µM
[5]
  GI50: 6.16 µM
  TGI: 19.4 µM
[6]
  GI50: 3.07 µM
  TGI: 10.3 µM
[7]
  GI50: 3.34 µM
  TGI: 15.4 µM
[8]
  GI50: 1.85 µM
  TGI: 3.72 µM
[9]
  GI50: 10.5 µM
  TGI: 22.6 µM
[10]
  GI50: 6.14 µM
  TGI: 20.3 µM
[11]
  GI50: 4.22 µM
  TGI: 15 µM
[12]
  GI50: 2.78 µM
  TGI: 10.5 µM
[13]
  GI50: 2.64 µM
  TGI: 8.18 µM
[14]
  GI50: 1.7 µM
  TGI: 3.98 µM
[15]
  GI50: 4.47 µM
  TGI: 16.8 µM
[16]
  GI50: 2.47 µM
  TGI: 10.7 µM
[17]
  GI50: 3.19 µM
  TGI: 15.5 µM
[18]
  GI50: 3 µM
  TGI: 11.4 µM
[19]
  GI50: 2.55 µM
  TGI: 10.5 µM
[20]
  GI50: 3.83 µM
  TGI: 14.1 µM
[21]
  GI50: 1.93 µM
  TGI: 4.27 µM
[22]
  GI50: 1.94 µM
  TGI: 3.66 µM
[23]
  GI50: 1.28 µM
  TGI: 3.08 µM
[24]
  GI50: 4.33 µM
  TGI: 14.1 µM
[25]
  GI50: 4.91 µM
  TGI: 17.5 µM
[26]
  GI50: 3.3 µM
  TGI: 10.6 µM
[27]
  GI50: 2.82 µM
  TGI: 8.27 µM
[28]
  GI50: 13.6 µM
  TGI: 32.5 µM
[29]
  GI50: 4.11 µM
  TGI: 16.5 µM
[30]
  GI50: 2.5 µM
  TGI: 6.06 µM
[31]
  GI50: 4.92 µM
  TGI: 18.5 µM
[32]
  GI50: 4.51 µM
  TGI: 17.5 µM
[33]
  GI50: 4.32 µM
  TGI: 16.5 µM
[34]
  GI50: 4.8 µM
  TGI: 18.1 µM
[35]
  GI50: 12 µM
  TGI: 24.9 µM
[36]
  GI50: 13.1 µM
  TGI: 29.1 µM
[37]
  GI50: 4.19 µM
  TGI: 18.3 µM
[38]
  GI50: 2.56 µM
  TGI: 11.8 µM
[39]
  GI50: 3.23 µM
  TGI: 13.7 µM
[40]
  GI50: 8.4 µM
  TGI: 21.7 µM
[41]
  GI50: 1.69 µM
  TGI: 3.62 µM
[42]
  GI50: 5.48 µM
  TGI: 19.1 µM
[43]
  GI50: 1.96 µM
  TGI: 4.38 µM
[44]
  GI50: 1.77 µM
  TGI: 3.55 µM
[45]
  GI50: 11 µM
  TGI: 23 µM
[46]
  GI50: 10.8 µM
  TGI: 23.9 µM
[47]
  GI50: 10.2 µM
  TGI: 22.2 µM
[48]
  GI50: 3.69 µM
  TGI: 16.7 µM
[49]
  GI50: 1.62 µM
  TGI: 4.33 µM
[50]
  GI50: 2.14 µM
  TGI: 5.76 µM
[51]
  GI50: 3.57 µM
  TGI: 15.9 µM
[52]
  GI50: 11.6 µM
  TGI: 25.2 µM
[53]
  GI50: 4.51 µM
  TGI: 20.9 µM
[54]
  GI50: 2.47 µM
  TGI: 7 µM
[55]
  GI50: 3.82 µM
  TGI: 15 µM
[56]
  GI50: 1.65 µM
  TGI: 5.55 µM
